The target in one assay is mouse TAAR1 (Mus musculus (Mouse), UniProt Q923Y8). Kind of assay: Radioligand binding assay on mouse TAAR1. As to conditions: mouse TAAR1, membranes of stably transfected HEK-293 cells; first value of cell mouse/rat. The procedure:
(§1) Construction of TAAR Expression Plasmids and Stably Transfected Cell Lines
(§2) For the construction of expression plasmids the coding sequences of human, rat and mouse TAAR 1 were amplified from genomic DNA essentially as described by Lindemann et al.. The Expand High Fidelity PCR System (Roche Diagnostics) was used with 1.5 mM Mg^2+ and purified PCR products were cloned into pCR2.1-TOPO cloning vector (Invitrogen) following the instructions of the manufacturer. PCR products were subcloned into the pIRESneo2 vector (BD Clontech, Palo Alto, Calif.), and expression vectors were sequence verified before introduction in cell lines.
(§3) HEK293 cells (ATCC # CRL-1573) were cultured essentially as described by Lindemann et al. (2005). For the generation of stably transfected cell lines HEK293 cells were transfected with the pIRESneo2 expression plasmids containing the TAAR coding sequences (described above) with Lipofectamine 2000 (Invitrogen) according to the instructions of the manufacturer, and 24 hrs post transfection the culture medium was supplemented with 1 mg/ml G418 (Sigma, Buchs, Switzerland). After a culture period of about 10 d clones were isolated, expanded and tested for responsiveness to trace amines (all compounds purchased from Sigma) with the cAMP Biotrak Enzyme immunoassay (EIA) System (Amersham) following the non-acetylation EIA procedure provided by the manufacturer.
Radioligand Binding Assay on Mouse TAAR1
(§4) Membrane Preparation and Radioligand Binding.
(§5) HEK-293 cells stably expressing mouse TAAR1 were maintained at 37° C. and 5% CO2 in DMEM high glucose medium, containing fetal calf serum (10%, heat inactivated for 30 min at 56° C.), penicillin/streptomycin (1%), and 375 μg/ml geneticin (Gibco). Cells were released from culture flasks using trypsin/EDTA, harvested, washed twice with ice-cold PBS (without Ca^2+ and Mg^2+), pelleted at 1'000 rpm for 5 min at 4° C., frozen and stored at −80° C. Frozen pellets were suspended in 20 ml HEPES-NaOH (20 mM, pH 7.4) containing 10 mM EDTA and homogenized with a Polytron (PT 6000, Kinematica) at 14'000 rpm for 20 s. The homogenate was centrifuged at 48'000×g for 30 min at 4° C. Subsequently, the supernatant was removed and discarded, and the pellet resuspended in 20 ml HEPES-NaOH (20 mM, pH 7.4) containing 0.1 mM EDTA using the Polytron (20 s at 14'000 rpm). This procedure was repeated and the final pellet resuspended in HEPES-NaOH containing 0.1 mM EDTA and homogenized using the Polytron. Typically, aliquots of 2 ml membrane portions were stored at −80° C. With each new membrane batch the dissociation constant (Kd) was determined via a saturation curve. The TAAR1 radioligand ^3[H]-(S)-4-[(ethyl-phenyl-amino)-methyl]-4,5-dihydro-oxazol-2-ylamine (described in WO 2008/098857) was used at a concentration equal to the calculated Kd value, that was usually around 0.7 nM, resulting in the binding of approximately 0.5% of the radioligand and a specific binding representing approximately 70% of the total binding. Nonspecific binding was defined as the amount of ^3[H]-(S)-4-[(ethyl-phenyl-amino)-methyl]-4,5-dihydro-oxazol-2-ylamine bound in the presence of 10 μM unlabeled ligand. All compounds were tested at a broad range of concentrations (10 μM to 10 μM) in duplicates. […] The 96 deep well plates were incubated for 1 hr at 4° C. Incubations were terminated by rapid filtration through Unifilter-96 plates (Packard Instrument Company) and glass filters GF/C (Perkin Elmer) presoaked for 1 hr in polyethylenimine (0.3%) and washed 3 times with 1 ml of cold binding buffer. After addition of 45 μl of Microscint 40 (PerkinElmer) the Unifilter-96 plate was sealed and after 1 hr the radioactivity counted using a TopCount Microplate Scintillation Counter (Packard Instrument Company).

The next assay concerns the target rat TAAR1 (Rattus norvegicus (Rat), UniProt Q923Y9). Kind of assay: Radioligand binding assay on rat TAAR1. As to conditions: rat TAAR1, membranes of stably transfected HEK-293 cells; second value of cell mouse/rat. Here is the method:
as §1, §2, §3
Radioligand Binding Assay on Rat TAAR1
as §4
as §5, with “expressing rat” for “expressing mouse”, “curve. […]” for “curve. The TAAR1 radioligand ^3[H]-(S)-4-[(ethyl-phenyl-amino)-methyl]-4,5-dihydro-oxazol-2-ylamine (described in WO 2008/098857) was used at a concentration equal to the calculated Kd value, that was usually around 0.7 nM, resulting in the binding of approximately 0.5% of the radioligand and a specific binding representing approximately 70% of the total binding.”, “(10 pM” for “(10 μM”

Where a name gives a salt, the structure may show the parent alone.

Chain of rat TAAR1 (Q923Y9 whole entry): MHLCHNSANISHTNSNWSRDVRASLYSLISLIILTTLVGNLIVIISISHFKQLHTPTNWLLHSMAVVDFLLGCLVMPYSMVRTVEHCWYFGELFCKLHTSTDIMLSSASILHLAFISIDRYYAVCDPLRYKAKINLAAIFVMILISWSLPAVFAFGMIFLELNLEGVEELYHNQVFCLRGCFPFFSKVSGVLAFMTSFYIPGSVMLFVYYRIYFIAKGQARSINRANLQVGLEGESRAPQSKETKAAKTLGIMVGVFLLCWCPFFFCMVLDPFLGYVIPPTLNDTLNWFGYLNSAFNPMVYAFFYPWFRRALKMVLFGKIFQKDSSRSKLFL
Chain of mouse TAAR1 (Q923Y8 whole entry): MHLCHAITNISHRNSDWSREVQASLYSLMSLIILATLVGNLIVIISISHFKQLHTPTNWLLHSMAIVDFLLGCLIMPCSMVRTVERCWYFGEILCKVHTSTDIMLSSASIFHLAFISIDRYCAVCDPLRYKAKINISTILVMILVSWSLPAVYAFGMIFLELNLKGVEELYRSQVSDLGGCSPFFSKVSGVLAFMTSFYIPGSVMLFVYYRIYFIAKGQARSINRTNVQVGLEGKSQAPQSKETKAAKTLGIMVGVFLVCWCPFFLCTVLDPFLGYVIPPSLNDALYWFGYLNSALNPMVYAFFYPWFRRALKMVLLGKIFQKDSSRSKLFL

One may read the Ki as the dissociation constant of the complex between target and ligand, obtained from inhibition or displacement. The low end stands for higher affinity, the high end for lower affinity. Regarding `NC1=N[C@@H](CCc2ccc(Nc3cc(C(F)(F)F)ccn3)cc2)CO1` [Example 23, {4-[2-((S)-2-Amino-4,5-dihydro-oxazol-4-yl)-ethyl]-phenyl}-(4-trifluoromethyl-pyridin-2-yl)-amine], the figures for the Ki at mouse TAAR1 and on rat TAAR1 were 0.0003 µM and 0.0002 µM, respectively.
On the same counts, the results for `Cc1cc(Nc2ccc(CC[C@H]3COC(N)=N3)cc2)ncn1` [Example 24, {4-[2-((S)-2-Amino-4,5-dihydro-oxazol-4-yl)-ethyl]-phenyl}-(6-methyl-pyrimidin-4-yl)-amine] are 0.0182 µM and 0.0013 µM.
For `Cc1cccc(Nc2ccc(CC[C@H]3COC(N)=N3)cc2)n1` [Example 25, {4-[2-((S)-2-Amino-4,5-dihydro-oxazol-4-yl)-ethyl]-phenyl}-(6-methyl-pyridin-2-yl)-amine], the results for the Ki on mouse TAAR1 and at rat TAAR1 were 0.0035 µM and 0.0007 µM, respectively.
With `NC1=N[C@@H](CCc2ccc(Nc3cccc(C(F)(F)F)n3)cc2)CO1` [Example 26, {4-[2-((S)-2-Amino-4,5-dihydro-oxazol-4-yl)-ethyl-]-phenyl}-(6-trifluoromethyl-pyridin-2-yl)-amine], the inhibition constant (Ki) at mouse TAAR1 stood at 0.0007 µM; on rat TAAR1, 0.0008 µM.
Taken in the same sequence, the figures for `NC1=N[C@@H](CCc2ccc(Nc3cncc(Cl)n3)cc2)CO1` [Example 27, {4-[2-((S)-2-Amino-4,5-dihydro-oxazol-4-yl)-ethyl]-phenyl}-(6-chloro-pyrazin-2-yl)-amine] were 0.0182 µM and 0.004 µM.
Taken in the same sequence, the figures for `NC1=N[C@@H](CCc2ccc(Nc3cccc(Cl)n3)cc2)CO1` [Example 28, {4-[2-((8)-2-Amino-4,5-dihydro-oxazol-4-yl)-ethyl]-phenyl}-(6-chloro-pyridin-2-yl)-amine] were 0.001 µM and 0.0005 µM.
On the same counts, the results for `Cc1ccc(Nc2ccc(CC[C@H]3COC(N)=N3)cc2)nc1` [Example 29, {4-[2-((8)-2-Amino-4,5-dihydro-oxazol-4-yl)-ethyl]-phenyl}-(5-methyl-pyridin-2-yl)-amine] are 0.0306 µM and 0.0035 µM.
On to `COc1ccc(Nc2ccc(CC[C@H]3COC(N)=N3)cc2)nc1` [Example 30, {4-[2-((S)-2-Amino-4,5-dihydro-oxazol-4-yl)-ethyl]-phenyl}-(5-methoxy-pyridin-2-yl)-amine], for which the results for the inhibition constant (Ki) at mouse TAAR1 and on rat TAAR1 were 0.134 µM and 0.0083 µM, respectively.
On the same counts, the results for `N#Cc1cncc(Nc2ccc(CC[C@H]3COC(N)=N3)cc2)n1` [Example 31, 6-{4-[2-((S)-2-Amino-4,5-dihydro-oxazol-4-yl)-ethyl]-phenylamino}-pyrazine-2-carbonitrile] are 0.0133 µM and 0.0059 µM.
Taken in the same sequence, the figures for `NC1=N[C@@H](CCc2ccc(Nc3cc(Cl)ncn3)cc2)CO1` [Example 32, {4-[2-((S)-2-Amino-4,5-dihydro-oxazol-4-yl)-ethyl]-phenyl}-(6-chloro-pyrimidin-4-yl)-amine] were 0.0019 µM and 0.0008 µM.
For `COc1cc(Nc2ccc(CC[C@H]3COC(N)=N3)cc2)ncn1` [Example 33, {4-[2-((S)-2-Amino-4,5-dihydro-oxazol-4-yl)-ethyl]-phenyl}-(6-methoxy-pyrimidin-4-yl)-amine], the inhibition constant (Ki) at mouse TAAR1 worked out at 0.0096 µM; on rat TAAR1, 0.0023 µM.
Taken in the same sequence, the figures for `Cc1nccc(Nc2ccc(CC[C@H]3COC(N)=N3)cc2)n1` [Example 34, {4-[2-((S)-2-Amino-4,5-dihydro-oxazol-4-yl)-ethyl]-phenyl}-(2-methyl-pyrimidin-4-yl)-amine] were 0.0387 µM and 0.0026 µM.
On the same counts, the results for `NC1=N[C@@H](CCc2ccc(Nc3ccncn3)cc2)CO1` [Example 35, (S)-4-(4-(Pyrimidin-4-ylamino)phenethyl)-4,5-dihydrooxazol-2-amine hydrochloride] are 0.0551 µM and 0.0023 µM.
Taken in the same sequence, the figures for `COc1ccnc(Nc2ccc(CC[C@H]3COC(N)=N3)cc2)n1` [Example 36, {4-[2-((S)-2-Amino-4,5-dihydro-oxazol-4-yl)-ethyl]-phenyl}-(4-methoxy-pyrimidin-2-yl)-amine] were 0.0047 µM and 0.0004 µM.
On to `CCc1cnc(Nc2ccc(CC[C@H]3COC(N)=N3)cc2)nc1` [Example 37, {4-[2-((S)-2-Amino-4,5-dihydro-oxazol-4-yl)-ethyl]-phenyl}-(5-ethyl-pyrimidin-2-yl)-amine], for which the Ki came out at 0.0013 µM at mouse TAAR1 and 0.0012 µM on rat TAAR1.
Taken in the same sequence, the figures for `COc1cnc(Nc2ccc(CC[C@H]3COC(N)=N3)cc2)nc1` [Example 38, {4-[2-((8)-2-Amino-4,5-dihydro-oxazol-4-yl)-ethyl]-phenyl}-(5-methoxy-pyrimidin-2-yl)-amine] were 0.007 µM and 0.0007 µM.
On the same counts, the results for `N#Cc1cnc(Nc2ccc(CC[C@H]3COC(N)=N3)cc2)cn1` [Example 39, 5-{4-[2-((8)-2-Amino-4,5-dihydro-oxazol-4-yl)-ethyl]-phenylamino}-pyrazine-2-carbonitrile] are 0.0128 µM and 0.0043 µM.
Taken in the same sequence, the figures for `NC1=N[C@@H](CCc2ccc(Nc3nccc(C(F)(F)F)n3)cc2)CO1` [Example 40, {4-[2-((S)-2-Amino-4,5-dihydro-oxazol-4-yl)-ethyl]-phenyl}-(4-trifluoromethyl-pyrimidin-2-yl)-amine] were 0.0024 µM and 0.001 µM.
For `NC1=N[C@@H](CCc2ccc(Nc3nccnc3Cl)cc2)CO1` [Example 41, {4-[2-((S)-2-Amino-4,5-dihydro-oxazol-4-yl)-ethyl]-phenyl}-(3-chloro-pyrazin-2-yl)-amine], the Ki on mouse TAAR1 amounted to 0.0593 µM; at rat TAAR1 it was 0.0031 µM.
As for `NC1=N[C@@H](CCc2ccc(Nc3cc(C(F)(F)F)cc(Cl)n3)cc2)CO1` [Example 42, {4-[2-((S)-2-Amino-4,5-dihydro-oxazol-4-yl)-ethyl]-phenyl}-(6-chloro-4-trifluoromethyl-pyridin-2-yl)-amine], the values for the inhibition constant (Ki) on mouse TAAR1 and on rat TAAR1 were 0.0008 µM and 0.0016 µM, respectively.

The values are drawn from patent US8673950B2, “Dihydrooxazol-2-amine derivatives” (Hoffmann-LaRoche Inc., priority 2010, dated 2014).
